The source of these data is US20060100179A1, “Compositions and methods for use in targeting vascular destruction” (priority 2002, published 2006).

The subject of series [1] is HMVEC (human neonatal microvascular endothelial cells). In words: Cell survival by clonogenic assay (colony count or MTT) in HMVEC. The settings on record: for clonogenic toxicity to HMVEC after 1 hour exposure versus 6 hours: 1 and 6 hours exposure, washed, 3 more days, MTT assay (FIG. 5); for clonogenic cytotoxicity, HMVEC, limited exposure: exposure limited to 2 hours, clonogenic cytotoxicity estimated at 5 days (FIG. 2A). The protocol:
(§1) Cell culture. Four commercially available human cell lines were grown in the indicated media below in 5% CO2, 80% humidity and 37EC: • 1. HL60 human leukemic cells, a pro-apoptotic cell line—cultured in RPMI 1640 fortified with 10% fetal calf serum. • 2. K562 human leukemic cells, an apoptotic-resistant cell line—cultured in RPMI 1640 fortified with 10% fetal calf serum. • 3. Human neonatal microvascular endothelial cells (HMVEC)—cultured in medium 131+microvascular growth supplement (MVGS)+attachment factor (AF)=500 ml+25 ml (AF is added 2-3 ml/T-25 flask; all reagents supplied by Cascade Biologics, Inc., Portland, Oreg.). • 4. Human neonatal dermal fibroblasts (HDF)—cultured in medium 106+low serum growth supplement (LSGS)=500 ml+10 ml (Cascade Biologics, Inc.).
Cell survival by clonogenic assay. This assay is based on a description reported by Schweitzer et al. (Expt. Haematol. 21: 573-578, 1993) with slight modifications. […] After 5 days of incubation under the standard culture conditions stated above, colonies (>40 cells) were counted by an inverted light microscope or estimated by MTT assay. IC50 values were obtained from the fitted curves of percentage of the control versus the drug concentrations. […]
The combretastatins are a family of naturally occurring tubulin binding agents comprising an A-,B-,C- and D- series of structures (U.S. Pat. Nos. 4,940,726; 4,996,237; 5,409,953; and 5,569,786). […] The compounds were added to microcultures in DMSO (i.e <0.5%) and toxicity was evaluated by MTT assay after 5-7 days in culture. […]

In series [2] the test system is HDF (human neonatal dermal fibroblasts). Put plainly: Cell survival by clonogenic assay (colony count or MTT) in HDF. On the procedure:
as §1
Cell survival by clonogenic assay. This assay is based on a description reported by Schweitzer et al. (Expt. Haematol. 21: 573-578, 1993) with slight modifications. […] After 5 days of incubation under the standard culture conditions stated above, colonies (>40 cells) were counted by an inverted light microscope or estimated by MTT assay. IC50 values were obtained from the fitted curves of percentage of the control versus the drug concentrations.
Experiment 1. HLGO, K562, HDF, and HMVEC cells were either cultured in 96-well plates at the indicated concentrations (FIGS. 2A and 2B) for 5 days in the presence of A4 prodrug, or after 2 hours exposure the drug-containing media was removed, fresh media added, and the cells cultured for an additional 5 days. Clonogenic growth was recorded after 5 days incubation for all treatments.
Experiment 2. HMVEC and HDF were cultured in 96-well microtiter plates initially containing 800 cells/well. The cells were cultured for 1 hour in the presence of the indicated concentrations of A4 prodrug ∀1 unit of alkaline phosphatase. The medium was removed, the cells washed, and fresh medium added, and the cells were incubated for an additional 5 days. Clonogenic growth was then established by the MTT assay.
The combretastatins are a family of naturally occurring tubulin binding agents comprising an A-,B-,C- and D- series of structures (U.S. Pat. Nos. 4,940,726; 4,996,237; 5,409,953; and 5,569,786). […] The compounds were added to microcultures in DMSO (i.e <0.5%) and toxicity was evaluated by MTT assay after 5-7 days in culture.
All of the compounds were evaluated for toxicity after a one-hour exposure in microculture and assayed for cytotoxicity by MTT assay after an additional 5 days' incubation in culture.

For series [3], the system named is HL60 human leukemic cells. In words: Cell survival by clonogenic assay in HL-60. It is filed as cell-based. The source says: (§2) Cell survival by clonogenic assay.
Series [4] concerns ocular vessels. Put plainly: Ocular neovascularization induced by lipid hydroperoxide (LHP) in rabbit eyes. It is filed as in vivo. The settings on record: i.v. 40 mg/kg once a day for five days, eyes examined seven days later. The protocol: To simulate pathogenic ocular angiogenesis, ocular neovascularization was induced by administration of lipid hydroperoxide (LHP) by intra-corneal injection at a dosage of 30 μg to rabbit eyes. Seven to 14 days later, ocular vessels formed in the injected eyes due to LHP insult. The subjects were divided into two groups; those of one group were given combretastatin A4 disodium phosphate by intravenous administration at a dosage of 40 mg/kg once a day for five days, while a vehicle without combretastatin A4 disodium phosphate was administered to the other group by i.v. administration as a dosage of water for the same time period. The eyes of both groups were examined seven days later.

Series [5] deals with K562 human leukemic cells. Put plainly: Cell survival by clonogenic assay in K562. It is filed as cell-based. The settings on record: 5 days exposure (FIG. 2B); read-out: IC50 clonogenic cytotoxicity, K562.
From the text: as §2

The mark [6] stands for this setting: read-out: IC50 clonogenic toxicity values, HMVEC, compounds added in DMSO (<0.5%), MTT assay after 5-7 days in culture.
The mark [7] stands for this setting: read-out: IC50 values HMVEC, one-hour exposure, MTT assay after additional 5 days' incubation.
Setting [8] is: read-out: IC50 clonogenic toxicity values, HDF, compounds added in DMSO (<0.5%), MTT assay after 5-7 days in culture.
The mark [9] stands for this setting: read-out: IC50 values HDF, one-hour exposure, MTT assay after additional 5 days' incubation.
Setting [10] is: compounds added in DMSO (<0.5%), MTT assay after 5-7 days in culture, read-out: IC50 clonogenic toxicity values, HL-60.

Like-named read-outs stand apart in the source and are kept apart here.

Usually IC50 stands for the midpoint of a concentration-inhibition curve.

Take `COc1ccc(/C=C\c2cc(OC)c(OC)c(OC)c2)c(O)c1O` [Combretastatin A1]: the “clonogenic toxicity to HMVEC after 1 hour exposure versus 6 hours” value in series [1] is “did not induce maximum toxicity”. The IC50 was 500 nM in series [1] (setting [6]), 10000 to 15000 nM in series [1] (setting [7]), 20 nM in series [2] (setting [8]) and 500 to 1000 nM in series [2] (setting [9]).

For `COc1ccc(/C=C\c2cc(OC)c3c(c2)OCO3)cc1O` [Combretastatin A2, reference compound], the results for the IC50 in series [1] (setting [6]), in series [3] (setting [10]) and in series [2] (setting [8]) were 30 to 40 nM, 15 nM and 25 to 35 nM, respectively.

Turning to `COc1ccc(/C=C\c2cc(O)c(OC)c(OC)c2)cc1O` [Combretastatin A3, reference compound], the IC50 in series [1] (setting [6]) was more than 12 nM; in series [3] (setting [10]), 5 nM; in series [2] (setting [8]), 8 to 10 nM.

Regarding `COc1ccc(/C=C\c2cc(OC)c(OC)c(OC)c2)cc1OP(=O)([O-])[O-].[Na+].[Na+]` [Combretastatin A4 Na2PO4, combretastatin A4 disodium phosphate], the reduction of vessels in series [4] was not below 40%. Moreover, the figures for the “clonogenic cytotoxicity, HMVEC, limited exposure” value in series [1] and in series [1] (listed as A4 prodrug) were “only HMVEC showed IC50 cytotoxicity” and “quite sensitive”, respectively. Further, the IC50 is 1.5 to 2.5 nM in series [1] (read-out: IC50 clonogenic cytotoxicity, HMVEC, 5 days exposure (FIG. 2B)); 75 to 150 nM in series [1] (setting [7]); 1.5 to 2.5 nM in series [5]; 1.5 to 2.5 nM in series [3] (5 days exposure (FIG. 2B), read-out: IC50 clonogenic cytotoxicity, HL60); 1.5 to 2.5 nM in series [2] (read-out: IC50 clonogenic cytotoxicity, HDF, 5 days exposure (FIG. 2B)); more than 500 nM in series [2] (setting [9]). Further, the “cytotoxicity to HDF with added alkaline phosphatase, compared with HMVEC” value in series [2] (1 hour exposure, 1 unit alkaline phosphatase added (FIG. 3)) is “the same for HMVEC and HDF”. Moreover, the “cytotoxicity to HDF without added alkaline phosphatase” value in series [2] (1 hour exposure, no added alkaline phosphatase (FIG. 3)) is on record as “lack of cytotoxicity”.

Take `COc1ccc(/C=C\c2cc(OC)c(OC)c(OC)c2)cc1O` [Combretastatin A4]: the IC50 in series [1] (setting [6]) was 1 to 2 nM; in series [1] (setting [7]) it was 75 to 150 nM; in series [3] (setting [10]) it was 1 to 2 nM; in series [2] (setting [8]) it was 1 to 2 nM; in series [2] (setting [9]), 50 nM.

Take `COc1ccc(CCc2cc(OC)c(OC)c(OC)c2)c(O)c1O` [Combretastatin B1, reference compound]: the results for the IC50 in series [1] (setting [6]), in series [3] (setting [10]) and in series [2] (setting [8]) were 200 to 300 nM, 500 nM and 200 to 300 nM, respectively.

Take `COc1ccc(CCc2cc(O)c(OC)c(OC)c2)cc1O` [Combretastatin B2, reference compound]: the IC50 in series [1] (setting [6]) was 800 to 1000 nM; in series [3] (setting [10]), 125 nM; in series [2] (setting [8]), 1100 nM.

Turning to `O=C1N[C@H]2[C@H](O)[C@H](O)[C@@H](O)[C@H](O)[C@@H]2c2cc3c(c(O)c21)OCO3` [Pancratistatin], the IC50 in series [1] (Homo sapiens, HMVEC, read-out: IC50 values HMVEC) was 20000 to 25000 nM; in series [2] (Homo sapiens, Fibroblast, read-out: IC50 values HDF), 20000 nM.

With `CC(=O)O[C@H]1C(=O)[C@@]2(C)[C@H]([C@H](OC(=O)c3ccccc3)[C@]3(O)C[C@H](OC(=O)[C@H](O)[C@@H](NC(=O)c4ccccc4)c4ccccc4)C(C)=C1C3(C)C)[C@]1(OC(C)=O)CO[C@@H]1C[C@@H]2O` [taxol, reference compound], in series [1], the “clonogenic toxicity to HMVEC after 1 hour exposure versus 6 hours” value is on record as “did not induce maximum toxicity”.

In the case of `CC(=O)O[C@@]12CO[C@@H]1C[C@H](O)[C@@]1(C)C(=O)[C@H](O)C3=C(C)[C@@H](OC(=O)[C@H](O)[C@@H](NC(=O)OC(C)(C)C)c4ccccc4)C[C@@](O)([C@@H](OC(=O)c4ccccc4)[C@H]21)C3(C)C` [taxotere, reference compound], the “clonogenic toxicity to HMVEC after 1 hour exposure versus 6 hours” value in series [1] is on record as “did not induce maximum toxicity”.

Turning to “Amino Combretastatin A4 Phosphoroamidate”, the IC50 in series [1] (setting [7]) lay in the range of 8000 to 10000 nM; in series [2] (setting [9]) it was 15000 to 20000 nM.

For Combretastatin A1 Na2PO4, the IC50 was in the range of 10000 to 15000 nM in series [1] (setting [7]) and 5000 to 10000 nM in series [2] (setting [9]).

Take Combretastatin A1 Nicotinamide PO4: the IC50 in series [1] (setting [7]) was 10000 to 15000 nM; in series [2] (setting [9]), more than 10000 nM.

With Combretastatin A1 Piperazine PO4, the IC50 in series [1] (setting [7]) fell in the range of 10000 to 15000 nM; in series [2] (setting [9]), 1000 to 2000 nM.

For the compound Pancratistatin Na2PO4, the half-inhibitory concentration (IC50) in series [1] (setting [7]) fell in the range of 20000 to 25000 nM; in series [2] (setting [9]), 60000 to 80000 nM.
